Measured values from US11555006B2, “Elucidation of novel 13-series resolvins that increase with atorvastatin and clear infections” (The Brigham and Women's Hospital, Inc., priority 2015, dated 2023).

Key:
[1] = tested on: human neutrophil-endothelial cell co-incubations; experiment: Lipid mediator levels in human endothelial cell incubations and neutrophil-endothelial cell co-incubations; assay type: cell-based; conditions: neutrophil-endothelial cells, 1 μM precursor
Protocol: Prior to sample extraction, deuterated internal standards (d4-PGE2, d5-LXA4, d4-RvD2, d4-LTB4 and d8-5S-HETE) representing regions of interest in the chromatographic analysis (500 pg each) were added to facilitate quantification. Extracted samples were analyzed by a LC-MS-MS system, Qtrap 6500 (AB Sciex) equipped with a Shimadzu SIL-20AC autoinjector and LC-20AD binary pump (Shimadzu Corp.). An Agilent Eclipse Plus C18 column (100×4.6 mm×1.8 μm) was used with a gradient of methanol/water/acetic acid of 55:45:0.01 (vol:vol:vol) that was ramped to 85:15:0.01 (vol:vol:vol) over 10 min and then to 98:2:0.01 (vol:vol:vol) for the next 8 min. This was subsequently maintained at 98:2:0.01 (vol:vol:vol) for 2 min. The flow rate was maintained at 0.4 ml/min. To monitor and quantify the levels of lipid mediators, a multiple reaction monitoring (MRM) method was developed with signature ion fragments (m/z) for each molecule monitoring the parent ion (Q1) and a characteristic daughter ion (Q3). […] Calibration curves were determined using a mixture of lipid mediators obtained via total organic synthesis, where these lipid mediators were not available (RvT1, RvT2, RvT3, RvT4 and 13-HDPA); known mediators with similar chromatographic properties (RvD2 for RvT1, RvD1 for RvT2 and RvT3; RvD5 for RvT4; 13-HDHA for 13-HDPA) were used. […]

human recombinant COX-2 [2] = target: T1, human recombinant COX-2 (Homo sapiens, UniProt P35354); experiment: Recombinant enzyme incubations, Michaelis Menten kinetics; assay type: biochemical; conditions: n-3 DPA converted to 13R-HDPA by human recombinant COX-2
T1 construct: purchased Cayman Chemicals
T1 sequence (P35354 18-604): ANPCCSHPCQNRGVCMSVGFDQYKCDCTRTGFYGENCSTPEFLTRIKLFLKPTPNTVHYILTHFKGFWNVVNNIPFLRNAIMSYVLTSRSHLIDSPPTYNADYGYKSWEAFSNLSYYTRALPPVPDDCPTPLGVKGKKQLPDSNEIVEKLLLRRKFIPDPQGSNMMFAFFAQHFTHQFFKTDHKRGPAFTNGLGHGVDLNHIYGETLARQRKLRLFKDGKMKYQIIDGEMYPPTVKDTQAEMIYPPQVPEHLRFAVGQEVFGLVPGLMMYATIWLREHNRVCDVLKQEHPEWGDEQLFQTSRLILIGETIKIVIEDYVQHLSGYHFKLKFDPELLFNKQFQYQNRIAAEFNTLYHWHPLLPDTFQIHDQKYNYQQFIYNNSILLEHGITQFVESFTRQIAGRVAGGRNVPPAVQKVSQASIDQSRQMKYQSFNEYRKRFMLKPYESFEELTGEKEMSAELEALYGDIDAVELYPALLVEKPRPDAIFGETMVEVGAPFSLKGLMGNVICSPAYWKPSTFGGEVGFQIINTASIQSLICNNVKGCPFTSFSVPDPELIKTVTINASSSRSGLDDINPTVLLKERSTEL
Protocol: Human recombinant COX-2 (10 units; Cayman Chemicals; in 0.1 M Tris-HCl, pH 8.0, 20 μM porcine hematin, 0.67 mM phenol as in ^33) was incubated with the indicated concentrations of AA or n-3 DPA (1 h, RT) and absorbance at 235 nm was investigated at 1 min intervals using a Cary UV-Vis Spectrophotometer (Agilent).

human recombinant COX-2 [3] = target: T1, human recombinant COX-2; experiment: n-3 DPA conversion by S-nitrosylated hrCOX-2; assay type: biochemical; conditions: hrCOX-2 incubated with S-nitrosoglutathione
Protocol: In designated experiments, n-3 DPA was incubated with hrCOX2, hrCOX-2 that was previously incubated with S-nitrosoglutathione (30 min RT), prepared by incubating 100 mM glutathione with 100 mM sodium nitrite in 200 mM hydrochloric acid at RT as in ^34 or S-nitrosoglutathione. After 20 min the incubations were quenched with methanol and 13-HDPA levels were assessed using LC-MS-MS-based LM metabololipidomics.

Row | Km (human recombinant COX-2 [2]) [µM] | 13R-HDPA and hrCOX-2 catalytic activity compared to native COX-2 (human recombinant COX-2 [3]) | Structure (SMILES) | increase in RvT amounts on co-incubation with precursor [1]
1 | 3.1 ± 1.3 | – | CC/C=C\C/C=C\C/C=C\C/C=C\C/C=C\CCCCCC(=O)O [n-3 DPA, n-3 docosapentaenoic acid] | 30-50%
2 | – | increased | N[C@@H](CCC(=O)N[C@@H](CSN=O)C(=O)NCC(=O)O)C(=O)O [S-nitrosoglutathione] | –
